Data taken from patent US12186402B2, “Polymer materials for delivery of short-chain fatty acids to the intestine for applications in human health and treatment of disease” (The University of Chicago, priority 2017, dated 2025).

System: allergy to peanuts induced in mice
Assay: Induced peanut allergy model: challenge with peanut protein; core body temperature, peanut-specific IgE, IgG1, mMCP-1
Format: in vivo, mouse

CCCC(=O)[O-].[Na+] [sodium butyrate]
physiological markers and symptoms of an allergic reaction (Example 8: allergic mice, 2.83 mg per g body weight daily by oral gavage, FIG. 17): not effective
core body temperature over time after challenge with peanut protein (protection) (FIG. 19, allergic mice, daily oral treatment): no protection
